Our source for the IC50 values is ChEMBL document CHEMBL1121635 (J Med Chem, 1980).

Test [1] addresses T1, Adrenergic receptor alpha-1 (Rattus norvegicus, UniProt P15823+P23944+P43140).
T1 sequence (P15823 whole entry): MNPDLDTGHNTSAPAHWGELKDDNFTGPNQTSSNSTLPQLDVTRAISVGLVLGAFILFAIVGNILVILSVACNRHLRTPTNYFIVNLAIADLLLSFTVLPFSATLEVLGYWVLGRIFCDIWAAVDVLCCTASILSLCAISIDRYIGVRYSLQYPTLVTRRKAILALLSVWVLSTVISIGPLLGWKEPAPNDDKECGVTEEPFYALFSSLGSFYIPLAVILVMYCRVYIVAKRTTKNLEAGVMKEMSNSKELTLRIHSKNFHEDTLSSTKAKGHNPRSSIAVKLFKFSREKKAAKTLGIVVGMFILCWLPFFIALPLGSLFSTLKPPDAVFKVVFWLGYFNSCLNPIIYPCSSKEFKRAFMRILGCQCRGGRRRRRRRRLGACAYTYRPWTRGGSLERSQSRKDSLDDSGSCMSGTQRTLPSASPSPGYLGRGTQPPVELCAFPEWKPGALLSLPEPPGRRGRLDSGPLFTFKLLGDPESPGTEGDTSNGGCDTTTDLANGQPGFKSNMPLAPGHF
T1 sequence (P23944 whole entry): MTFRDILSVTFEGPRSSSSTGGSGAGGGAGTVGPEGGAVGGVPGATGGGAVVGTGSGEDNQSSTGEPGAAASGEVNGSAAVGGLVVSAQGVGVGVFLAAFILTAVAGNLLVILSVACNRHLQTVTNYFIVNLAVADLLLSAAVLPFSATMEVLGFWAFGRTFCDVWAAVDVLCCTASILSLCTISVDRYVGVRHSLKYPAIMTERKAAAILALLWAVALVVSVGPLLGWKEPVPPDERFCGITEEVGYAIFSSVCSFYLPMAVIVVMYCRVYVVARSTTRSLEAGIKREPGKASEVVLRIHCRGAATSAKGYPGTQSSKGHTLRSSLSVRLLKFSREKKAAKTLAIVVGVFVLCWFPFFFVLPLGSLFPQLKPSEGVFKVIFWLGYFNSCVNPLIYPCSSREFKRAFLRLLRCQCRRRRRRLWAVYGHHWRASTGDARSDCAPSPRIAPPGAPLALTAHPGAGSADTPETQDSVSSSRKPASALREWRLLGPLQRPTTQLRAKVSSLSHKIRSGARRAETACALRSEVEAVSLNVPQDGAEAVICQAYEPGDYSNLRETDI
T1 sequence (P43140 whole entry): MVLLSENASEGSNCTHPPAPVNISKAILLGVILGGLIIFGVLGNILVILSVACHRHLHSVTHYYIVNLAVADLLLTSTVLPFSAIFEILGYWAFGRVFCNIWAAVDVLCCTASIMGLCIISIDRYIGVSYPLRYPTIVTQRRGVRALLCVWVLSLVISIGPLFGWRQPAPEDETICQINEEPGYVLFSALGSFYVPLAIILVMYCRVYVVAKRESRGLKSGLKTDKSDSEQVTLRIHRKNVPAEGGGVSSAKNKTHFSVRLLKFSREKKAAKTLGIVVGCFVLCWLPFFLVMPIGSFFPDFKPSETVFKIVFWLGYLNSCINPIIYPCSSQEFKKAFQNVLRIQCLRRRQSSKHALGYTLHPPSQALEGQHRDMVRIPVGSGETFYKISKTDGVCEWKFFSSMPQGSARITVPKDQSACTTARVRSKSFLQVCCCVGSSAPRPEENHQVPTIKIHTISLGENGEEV
Description: Concentration of compound for 50% displacement of [3H]WB-4101 from Alpha-1 adrenergic receptor of rat brain

The species entered for test [2] is Rattus norvegicus.
Description: (§1) Concentration of compound to inhibit 50% of [3H]norepinephrine neurotransmitter uptake in rat brain
The species named for test [3] is Rattus norvegicus. The test is described as follows: cells. Particulars: Brain, 3 h.
Description: (§2) Concentration of compound to inhibit 50% of [3H]-5-HT neurotransmitter uptake in rat brain
The target of test [4] is Muscarinic acetylcholine receptor.
Description: Concentration of compound for 50% displacement of [3H]QNB from Muscarinic acetylcholine receptor in rat brain
Test [5] is filed under the species Rattus norvegicus. This is another data set of the same source.
Description: as §2
For the next test, the target named is Dopamine receptor. The test is described as follows: Concentration of compound for 50% displacement of [3H]spiperone from Dopamine receptor in rat brain. It counts as tissue-based. Background: Displacement assays read how much labelled ligand stays bound in the presence of the test substance.
The species entered for test [6] is Rattus norvegicus. The test is described as follows: cells. Particulars: Brain, 3 h. This is another data set of the same source.
Description: as §1

Usually IC50 stands for the concentration that gives 50% inhibition. For the compound `CN1CCC2c3cccc4c3N(CC2C1)c1ccccc1CC4` (stereo in doubt), the IC50 in test [1] turned out to be 0.445 µM; in the test listed under Rattus norvegicus [2] it was 3.54 µM; in the test filed under Rattus norvegicus [3] it was 19.6 µM; in test [4], 2.24 µM.

For `CN1CCC2c3cccc4c3N(CC2C1)c1ccccc1CC4` (trans isomer), the IC50 in the test listed under Rattus norvegicus [5] turned out to be 14.2 µM; in test [1] it was 1.76 µM; in the test filed under Rattus norvegicus [2] it was 1.25 µM; in test [4], 0.449 µM.

For `CN(C)CCCN1c2ccccc2CCc2ccccc21` [IMIPRAMINE], the IC50 at Dopamine receptor came to 0.645 µM; in the test listed under Rattus norvegicus [3], 0.384 µM; in the test filed under Rattus norvegicus [6], 0.169 µM; in test [4] it was 0.269 µM.
